US20230322805A1, “NOVEL PYRIMIDODIAZEPINE DERIVATIVES OR USES THEREOF” (SPARK BIOPHARMA, INC., priority 2020, published 2023)

Columns and labels:
[1] = tested on: DsRed-IRES-tau EGFP HEK293 cells; assay: Flow cytometry of DsRed-IRES-tau EGFP HEK293 cells (tau clearance); type: cell-based, human; details: 5 μM compound with 100 nM TG for 20 hours
[2] = tested on: PERK signaling (p-PERK, p-elF2a, ATF4); assay: Time course of PERK activation in SH-SY5Y cells (immunoblot); type: cell-based, human
Protocol: 4-2. PDIA3 and DNAJC3 play a role in regulating tau aggregation by inhibiting the PERK signaling pathway. Accordingly, human neuroblastoma SH-SY5Y cells were treated with 10 μM SB1617, treated with or without thapsigargin, and PERK activation was confirmed over time.
The stress-response potency of SB1617 may be due to upregulation of PDIA3 and DNAJC3 levels or changes in the redox state of partner proteins under ER stress conditions.

[3] = tested on: protein synthesis in SH-SY5Y cells; assay: Protein synthesis labelling with furomycin in SH-SY5Y cells; type: cell-based, human; details: 10 μM SB1617, with thapsigargin
Protocol: 5-1. […] To assure this, SH-SY5Y cells were treated with 10 μM SB1617 for directed time, and then the newly synthesized protein was labeled with 10 μg/mL furomycin for 10 minutes and visualized by anti-furomycin antibody staining.

[4] = tested on: TBI mouse model; assay: Controlled cortical impact TBI mouse model; type: in vivo
Protocol: CD-1 (ICR) male mice (2-3 months old, 25-35 g body weight; DBL, Korea) were used in the TBI study. […] All mice were fed water and food ad libitum. In order to avoid and minimize transport-related stress, experiments were initiated after a period of one week following transport to allow the animals to acclimatize to environmental conditions.
An experimental controlled cortical impact (CCI) model for TBI was performed as follows. Using an isoflurane vaporizer (VetEquip), the mouse was deeply anesthetized with isoflurane inhaled at 3% in a mixture of 70:30 nitrous oxide and oxygen, and placed in a stereotaxic apparatus. […] An approximately 4 mm incision was made in the right hemisphere using a hand-held drill (midline 2 mm, bregma 1 mm). A controlled cortical impact device (Leica Impact One, Leica Biosystems) was used to accelerate an impact device equipped with a 2 mm flat-tip at a speed of 5 m/sec to a depth of 1.4 mm. […] Traumatic brain injury animal models were randomly generated according to an online randomization tool (randomizer.org). Sham-operated groups performed only craniotomy.
Control mice were intraperitoneally administered with the same volume of vehicle.
Mice were deeply anesthetized by intraperitoneal administration of a mixture of urethane (1.5 g/kg) in saline (0.9% NaCl) at 0.01 mL/g per body weight. The effect of anesthesia was assessed using a toe pinch. Subsequently, saline was perfused into the heart of the mouse, and PBS was mixed with 4% paraformaldehyde and then perfused. Brains were fixed in 4% paraformaldehyde for 1 h and immersed in 30% sucrose for cryoprotection. Then, whole brains were frozen and […] sections were formed on a cryostat microtome (CM1850, Leica) with a thickness of 30 μm.
After washing in PBS, sections were incubated overnight with a mouse monoclonal anti-NeuN antibody (1:500 dilution, Millipore) in PBS containing 0.3% Triton X-100 at 4° C. to assess neuronal loss after TBI. After washing with PBS, sections were incubated in biotinylated anti-mouse IgG (1:250 dilution, Vector) at room temperature for 2 hours […] to detect NeuN antibody and biotinylated anti-rat IgG (1:250 dilution, Vector) to examine the degree of leakage of endogenous immunoglobulin G. Then, the sections were immersed in an avidin-biotin-peroxidase complex (Vector) for 2 hours at room temperature. Between incubations, sections were washed with PBS. […] Immunoreactivity was observed under an Olympus IX70 inverted microscope.
Immunofluorescence labeling was performed according to a conventionally known general immunostaining procedure. […] After washing with PBS, the sections were incubated with each specific type of polyclonal or monoclonal primary antibody with PBS containing 0.3% Triton X-100 overnight at 4° C.
The primary antibodies used in this test are the same as follows: • mouse monoclonal anti-4-hydroxynonenal (4-HNE; diluted 1:500; Alpha Diagnostic International), • mouse monoclonal anti-Tau (Tau5; diluted 1:500; Abcam), • mouse monoclonal anti-phospho Tau (Ser202, Thr205; AT8; diluted 1:200; Invitrogen), • mouse monoclonal anti-PDI (diluted 1:100; Abcam), • rabbit polyclonal anti-ERp57 (diluted 1:100; Abcam), and • goat polyclonal anti-Iba-1 antibody (diluted 1:500; Abcam).
To count NeuN-positive cells, every sixth section was collected posterior to bregma from 1.2 to 2.1 mm at 180 μm intervals. Five coronal sections from each mouse were analyzed using a microscope with a 20×objective. These sections were then coded and provided to a blinded experimenter to count total NeuN-positive cells in hippocampal CA1 and cortex from hippocampal hemispheres. Data were expressed as the average number of NeuN-positive cells per area. To quantify the PDI-, ERp57-, Tau5-, AT8-, and 4HNE- immunofluorescence intensities, five coronal sections were evaluated by a blinded experimenter using ImageJ (National Institute of Health).

[5] = after TBI induction, versus vehicle
[6] = ipsilateral perilesional cortex, 12 and 24 hours after TBI induction

What does the source list for `CN(Cc1ccc(Cl)cc1)c1ncnc2c1[C@@H]1OC[C@H](CN2)N1S(=O)(=O)c1ccc([N+](=O)[O-])cc1` [Compound 117]?
EGFP-to-DsRed signal ratio [1]: decreased; PERK activation over time ([2]; 10 μM SB1617, with thapsigargin): prolonged PERK activation; activation of downstream PERK signaling ([2]; 10 μM SB1617, without thapsigargin (absence of cell stress)): not significant; inhibition of protein synthesis [3]: enhanced and extended; neurologic severity score (NSS) ([4]; 1, 4, 24, 48, 72 hours and 7 days after TBI): maintained nerve protection activity; pole climbing test, time to descend the pole [4, 5]: significantly reduced; pole climbing test, time to turn the head downward [4, 5]: significantly reduced; level of microglial activation ([4]; ipsilateral hemisphere, after TBI): the activity of microglial cells was improved; total tau and p-tau levels (Tau5, AT8 immunofluorescence) ([4]; ipsilateral hippocampal CA1 and cortex, 24 hours after TBI, 5 mg/kg, 2 times a day): these symptoms were improved; Iba-1 levels (neuroinflammation) ([4]; ipsilateral hippocampal CA1 and cortex, 72 hours after TBI): could be improved; ER stress and oxidative stress (PDI, ERp57 immunofluorescence) ([4]; ipsilateral hippocampal CA1 and cortex, 5 mg/kg, 2 times a day): these symptoms were confirmed; conversion rate from LC3-1 to LC3-II (Western blotting) [4, 6]: the conversion rate from LC3-1 to LC3-II was improved; p62 protein level (Western blotting) [4, 6]: an increase in p62 protein level
